Laboratory results: publication PMC5526996, “Structural basis for dolichylphosphate mannose biosynthesis” (Nature Communications, 2017)
One block for each compound: values may come before it.

Assays:
[1] = target: T1, PfDPMS (Pyrococcus furiosus, UniProt Q8U4M3); test: X-ray crystallography; assay type: binding; settings: formed in reaction mixture at 60 °C; GDP bound, metal departed
T1 construct: gene PF0058; E. coli C41(DE3) membranes, DDM or LDAO solubilised, mainly monomer
T1 sequence (Q8U4M3 1-352): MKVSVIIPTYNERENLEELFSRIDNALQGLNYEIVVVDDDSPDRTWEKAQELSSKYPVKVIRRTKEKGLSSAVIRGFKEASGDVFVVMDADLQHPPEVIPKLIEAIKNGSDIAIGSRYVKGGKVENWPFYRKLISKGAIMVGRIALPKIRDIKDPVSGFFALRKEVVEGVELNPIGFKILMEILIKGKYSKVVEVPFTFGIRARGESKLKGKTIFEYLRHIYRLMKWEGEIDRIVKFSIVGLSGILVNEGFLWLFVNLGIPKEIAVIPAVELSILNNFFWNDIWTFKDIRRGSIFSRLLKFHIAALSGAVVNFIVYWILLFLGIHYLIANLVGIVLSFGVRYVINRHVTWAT

[2] = target: T1, PfDPMS; test: thermal shift, heat precipitation with SDS-PAGE densitometry; assay type: binding; settings: detergent-solubilised; compared with no Dol-P
[3] = target: T1, PfDPMS; test: phosphate-coupled glycosyltransferase assay (malachite green); assay type: biochemical; settings: 0.23 mM donor, Dol-P acceptor, 75 °C, pH 7.5

X-ray crystallography [1]: 5MM1 (PfDPMS•GDP•Dol55-P-Man)
Compound: CC(C)=CCC/C(C)=C/CC/C(C)=C/CC/C(C)=C\CC/C(C)=C\CC/C(C)=C\CC/C(C)=C\CC/C(C)=C\CC/C(C)=C\CC/C(C)=C\CC[C@H](C)CCOP(=O)(O)O[C@@H]1O[C@H](CO)[C@@H](O)[C@H](O)[C@@H]1O [Dol55-P-Man]

ΔTm [2]: 13.3 °C
Compound: CC(C)=CCC/C(C)=C/CC/C(C)=C/CC/C(C)=C\CC/C(C)=C\CC/C(C)=C\CC/C(C)=C\CC/C(C)=C\CC/C(C)=C\CC/C(C)=C\CC[C@H](C)CCOP(=O)(O)O [Dol55-P]

Compound: Nc1nc2c(ncn2[C@@H]2O[C@H](COP(=O)(O)OP(=O)(O)O[C@H]3O[C@H](CO)[C@@H](O)[C@H](O)[C@H]3O)[C@@H](O)[C@H]2O)c(=O)[nH]1 [GDP-Glc]
phosphate-coupled glycosyltransferase assay (malachite green) [3]: four-fold higher product formation with GDP-Man compared with GDP-Glc
